Assay results reported in PubChem BioAssay AID1963962 (Molecular Pharmacology Branch, DTP, NCI, 2024).

Tested on: 967376-340-R-J2-PDC multicell spheroid viability
Experiment: Anticancer human tumor 967376-340-R-J2-PDC patient-derived colon adenocarcinoma cell line growth inhibition [PI3K]
Settings: for IC50: curve of first compound; for viability, T/C: stronger effect = lower value
How it was run: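 Three cell types, namely tumor cells, endothelial cells and mesenchymal stem cells, formed each spheroid. Combinations with four PI3K inhibitors were screened at clinically achievable concentrations decreasing by half-log, and spheroid viability was recorded.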

[1] = second compound 0.0316 µM, first compound 0.0316 µM
[2] = second compound 0.0316 µM, first compound 0.1 µM
[3] = second compound 0.0316 µM, first compound 0.316 µM
[4] = second compound 0.0316 µM, first compound 1 µM
[5] = second compound 0.0316 µM, first compound 3.16 µM
[6] = second compound 0.0316 µM, first compound 10 µM
[7] = second compound 0.1 µM, first compound 0.0316 µM
[8] = second compound 0.1 µM, first compound 0.1 µM
[9] = second compound 0.1 µM, first compound 0.316 µM
[10] = second compound 0.1 µM, first compound 1 µM
[11] = second compound 0.1 µM, first compound 3.16 µM
[12] = second compound 0.1 µM, first compound 10 µM
[13] = second compound 0.316 µM, first compound 0.0316 µM
[14] = second compound 0.316 µM, first compound 0.1 µM
[15] = second compound 0.316 µM, first compound 0.316 µM
[16] = second compound 0.316 µM, first compound 1 µM
[17] = second compound 0.316 µM, first compound 3.16 µM
[18] = second compound 0.316 µM, first compound 10 µM
[19] = second compound 1 µM, first compound 0.0316 µM
[20] = second compound 1 µM, first compound 0.1 µM
[21] = second compound 1 µM, first compound 0.316 µM
[22] = second compound 1 µM, first compound 1 µM
[23] = second compound 1 µM, first compound 3.16 µM
[24] = second compound 1 µM, first compound 10 µM
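Further: spheroids exposed to agents for 7 days before read-out.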
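Wherever viability, T/C is given: luminescence used as surrogate of cell viability.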

SMILES: CC1(C)CCC(Nc2ncc(C(F)(F)F)c(-c3c[nH]c4c(P(C)(C)=O)c(C#N)ccc34)n2)CN1 (stereo unspecified) + CC(Nc1ncnc2nc[nH]c12)c1cc2cccc(Cl)c2c(=O)n1-c1ccccc1
- IC50 (second compound 0.0316 µM): > 10 µM
- IC50 (second compound 0.1 µM): > 10 µM
- IC50 (second compound 0.316 µM): > 10 µM
- IC50 (second compound 1 µM): > 10 µM
- IC50 (second compound 3.16 µM): > 10 µM
- IC50 (second compound 10 µM): 4.79 µM
- viability, T/C [1]: 103%
- viability, T/C [2]: 90.2%
- viability, T/C [3]: 80.3%
- viability, T/C [4]: 69.2%
- viability, T/C [5]: 68.3%
- viability, T/C [6]: 55.4%
- viability, T/C [7]: 108%
- viability, T/C [8]: 92.8%
- viability, T/C [9]: 79.6%
- viability, T/C [10]: 75.2%
- viability, T/C [11]: 76.6%
- viability, T/C [12]: 55.7%
- viability, T/C [13]: 83.5%
- viability, T/C [14]: 91.6%
- viability, T/C [15]: 93%
- viability, T/C [16]: 60.9%
- viability, T/C [17]: 71.4%
- viability, T/C [18]: 64.3%
- viability, T/C [19]: 90.6%
- viability, T/C [20]: 93.5%
- viability, T/C [21]: 64.1%
- viability, T/C [22]: 78.1%
- viability, T/C [23]: 68.2%
- viability, T/C [24]: 63.9%
- viability, T/C (second compound 3.16 µM, first compound 0.0316 µM): 84.6%
- viability, T/C (second compound 3.16 µM, first compound 0.1 µM): 73.6%
- viability, T/C (second compound 3.16 µM, first compound 0.316 µM): 85%
- viability, T/C (second compound 3.16 µM, first compound 1 µM): 73.4%
- viability, T/C (second compound 3.16 µM, first compound 3.16 µM): 73%
- viability, T/C (second compound 3.16 µM, first compound 10 µM): 62.3%
- viability, T/C (second compound 10 µM, first compound 0.0316 µM): 72.3%
- viability, T/C (second compound 10 µM, first compound 0.1 µM): 73.8%
- viability, T/C (second compound 10 µM, first compound 0.316 µM): 70.2%
- viability, T/C (second compound 10 µM, first compound 1 µM): 63.5%
- viability, T/C (second compound 10 µM, first compound 3.16 µM): 56.8%
- viability, T/C (second compound 10 µM, first compound 10 µM): 39.4%

SMILES: CNC(=O)c1ccc(N2C(=S)N(c3ccc(C#N)c(C(F)(F)F)c3)C(=O)C2(C)C)cc1F + COc1c(OCCCN2CCOCC2)ccc2c3n(c(=NC(=O)c4cnc(N)nc4)nc12)CCN3
- IC50 (second compound 0.00316 µM): > 10 µM
- IC50 (second compound 0.01 µM): > 10 µM
- IC50 (second compound 0.0316 µM): > 10 µM
- IC50 (second compound 0.1 µM): > 10 µM
- IC50 (second compound 0.316 µM): 0.388 µM
- IC50 (second compound 1 µM): < 0.0316 µM
- viability, T/C (second compound 0.00316 µM, first compound 0.0316 µM): 92%
- viability, T/C (second compound 0.00316 µM, first compound 0.1 µM): 90%
- viability, T/C (second compound 0.00316 µM, first compound 0.316 µM): 73.3%
- viability, T/C (second compound 0.00316 µM, first compound 1 µM): 93%
- viability, T/C (second compound 0.00316 µM, first compound 3.16 µM): 113%
- viability, T/C (second compound 0.00316 µM, first compound 10 µM): 102%
- viability, T/C (second compound 0.01 µM, first compound 0.0316 µM): 90%
- viability, T/C (second compound 0.01 µM, first compound 0.1 µM): 82.7%
- viability, T/C (second compound 0.01 µM, first compound 0.316 µM): 65.7%
- viability, T/C (second compound 0.01 µM, first compound 1 µM): 87.3%
- viability, T/C (second compound 0.01 µM, first compound 3.16 µM): 105%
- viability, T/C (second compound 0.01 µM, first compound 10 µM): 120%
- viability, T/C [1]: 78%
- viability, T/C [2]: 64.9%
- viability, T/C [3]: 64.5%
- viability, T/C [4]: 60.9%
- viability, T/C [5]: 79.9%
- viability, T/C [6]: 66%
- viability, T/C [7]: 65.7%
- viability, T/C [8]: 64.3%
- viability, T/C [9]: 64.5%
- viability, T/C [10]: 51%
- viability, T/C [11]: 53.3%
- viability, T/C [12]: 64.6%
- viability, T/C [13]: 50.3%
- viability, T/C [14]: 50.3%
- viability, T/C [15]: 54.5%
- viability, T/C [16]: 34.8%
- viability, T/C [17]: 37.5%
- viability, T/C [18]: 54.2%
- viability, T/C [19]: 35%
- viability, T/C [20]: 36.5%
- viability, T/C [21]: 39.8%
- viability, T/C [22]: 34.6%
- viability, T/C [23]: 36.6%
- viability, T/C [24]: 28.1%

SMILES: Cn1cnc2c(F)c(Nc3ccc(Br)cc3Cl)c(C(=O)NOCCO)cc21 + COc1c(OCCCN2CCOCC2)ccc2c3n(c(=NC(=O)c4cnc(N)nc4)nc12)CCN3
- IC50 (second compound 0.00316 µM): 2.85 µM
- IC50 (second compound 0.01 µM): 2.08 µM
- IC50 (second compound 0.0316 µM): 1.01 µM
- IC50 (second compound 0.1 µM): 0.332 µM
- IC50 (second compound 0.316 µM): < 0.00949 µM
- IC50 (second compound 1 µM): < 0.00949 µM
- viability, T/C (second compound 0.00316 µM, first compound 0.00949 µM): 85.7%
- viability, T/C (second compound 0.00316 µM, first compound 0.03 µM): 79.2%
- viability, T/C (second compound 0.00316 µM, first compound 0.0949 µM): 87.5%
- viability, T/C (second compound 0.00316 µM, first compound 0.3 µM): 67.9%
- viability, T/C (second compound 0.00316 µM, first compound 0.949 µM): 80.5%
- viability, T/C (second compound 0.00316 µM, first compound 3 µM): 48.7%
- viability, T/C (second compound 0.01 µM, first compound 0.00949 µM): 106%
- viability, T/C (second compound 0.01 µM, first compound 0.03 µM): 86.6%
- viability, T/C (second compound 0.01 µM, first compound 0.0949 µM): 66.9%
- viability, T/C (second compound 0.01 µM, first compound 0.3 µM): 79.9%
- viability, T/C (second compound 0.01 µM, first compound 0.949 µM): 87%
- viability, T/C (second compound 0.01 µM, first compound 3 µM): 33.4%
- viability, T/C (second compound 0.0316 µM, first compound 0.00949 µM): 80.1%
- viability, T/C (second compound 0.0316 µM, first compound 0.03 µM): 61.2%
- viability, T/C (second compound 0.0316 µM, first compound 0.0949 µM): 51.7%
- viability, T/C (second compound 0.0316 µM, first compound 0.3 µM): 53.2%
- viability, T/C (second compound 0.0316 µM, first compound 0.949 µM): 57.6%
- viability, T/C (second compound 0.0316 µM, first compound 3 µM): 15.3%
- viability, T/C (second compound 0.1 µM, first compound 0.00949 µM): 49.2%
- viability, T/C (second compound 0.1 µM, first compound 0.03 µM): 59.9%
- viability, T/C (second compound 0.1 µM, first compound 0.0949 µM): 49.6%
- viability, T/C (second compound 0.1 µM, first compound 0.3 µM): 53.1%
- viability, T/C (second compound 0.1 µM, first compound 0.949 µM): 19.8%
- viability, T/C (second compound 0.1 µM, first compound 3 µM): 1.95%
- viability, T/C (second compound 0.316 µM, first compound 0.00949 µM): 28.5%
- viability, T/C (second compound 0.316 µM, first compound 0.03 µM): 65.1%
- viability, T/C (second compound 0.316 µM, first compound 0.0949 µM): 46.9%
- viability, T/C (second compound 0.316 µM, first compound 0.3 µM): 23.9%
- viability, T/C (second compound 0.316 µM, first compound 0.949 µM): 1.63%
- viability, T/C (second compound 0.316 µM, first compound 3 µM): 1.2%
- viability, T/C (second compound 1 µM, first compound 0.00949 µM): 44.2%
- viability, T/C (second compound 1 µM, first compound 0.03 µM): 25.5%
- viability, T/C (second compound 1 µM, first compound 0.0949 µM): 32.3%
- viability, T/C (second compound 1 µM, first compound 0.3 µM): 16.7%
- viability, T/C (second compound 1 µM, first compound 0.949 µM): 1.19%
- viability, T/C (second compound 1 µM, first compound 3 µM): 1.28%
